The text below walks through data of patent US4439606A, “Antiatherosclerotic 1-piperazinecarbonyl compounds” (American Cyanamid Company, priority 1982, dated 1984).

Assay [1] concerns the target T1, fatty acyl CoA:-cholesterol acyl transferase (ACAT) (Rattus norvegicus, UniProt O70536).
T1 construct: The supernatant, containing the microsomal fraction, served as the source of the cholesterol-esterifying enzyme; from tissue; host or cells: rat adrenals, 1000 x g supernatant containing the microsomal fraction
T1 sequence (O70536 1-545): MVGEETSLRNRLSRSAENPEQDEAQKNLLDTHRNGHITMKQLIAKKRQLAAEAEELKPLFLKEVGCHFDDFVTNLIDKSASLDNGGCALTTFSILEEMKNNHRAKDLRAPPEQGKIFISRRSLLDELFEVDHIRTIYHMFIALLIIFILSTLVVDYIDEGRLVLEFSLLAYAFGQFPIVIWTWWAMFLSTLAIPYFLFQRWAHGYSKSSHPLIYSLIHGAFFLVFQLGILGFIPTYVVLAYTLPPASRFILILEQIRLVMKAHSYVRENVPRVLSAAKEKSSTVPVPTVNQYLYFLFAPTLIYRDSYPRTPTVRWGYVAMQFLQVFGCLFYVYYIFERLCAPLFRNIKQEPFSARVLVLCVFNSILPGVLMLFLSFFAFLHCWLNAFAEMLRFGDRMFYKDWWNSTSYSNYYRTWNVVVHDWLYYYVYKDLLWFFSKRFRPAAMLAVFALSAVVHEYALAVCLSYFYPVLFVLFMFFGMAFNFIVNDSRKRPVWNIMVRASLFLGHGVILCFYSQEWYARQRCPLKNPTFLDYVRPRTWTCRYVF
The assay is described as follows: Inhibition of enzymatic esterification of cholesterol (ACAT inhibition), rat adrenal supernatant. Particulars: final concentration 5.2 μg./ml., 37° C., 30 minutes. The assay is classed as biochemical. The procedure: The compounds of the present invention were tested for their ability to inhibit the enzymatic esterification of cholesterol according to the procedure of Hashimoto, et al., Life Sci., 12(Part II), 1-12 (1973).
Rat adrenals were homogenized in 0.2 M monobasic potassium phosphate buffer, pH 7.4, and centrifuged at 1000 times gravity for 15 minutes at 5° C. The supernatant, containing the microsomal fraction, served as the source of the cholesterol-esterifying enzyme, fatty acyl CoA:-cholesterol acyl transferase (ACAT). A mixture comprising 50 parts of adrenal supernatant, 10 parts of bovine serum albumin (50 mg./ml.), 3 parts of test compound (final concentration 5.2 μg./ml.) and 500 parts of buffer were preincubated at 37° C. for 10 minutes, following which 20 parts of oleoyl […] were added and the final mixture was incubated at 37° C. for 30 minutes. A control mixture, omitting the test compound, was prepared and treated in the same manner. The lipids from the incubation mixture were extracted into an organic solvent and separated by thin-layer chromatography. The cholesterol ester fraction was counted in a scintillation counter. A statistically significant inhibition of the ACAT enzyme is the criterion for activity.

In assay [2] the test system is serum cholesterol and triglyceride. The assay can be described thus: Lowering of serum lipid levels, oral administration in diet to rats. Particulars: 0.1% of test compound by weight in diet, 5 days, vs control rats. The assay is classed as in vivo, male rats COBS, CD, SD strain. The method, then: The compounds were also tested for their ability to lower lipid levels in mammals. The compounds were administered orally admixed with diet to groups of four male rats COBS, CD, SD strain from Charles River Breeding Laboratories, Inc., Wilmington, Mass. A control group of eight rats was maintained on the diet alone; test groups were maintained on the diet plus 0.1% of test compound by weight. After 5 days treatment, serum cholesterol and triglyceride concentrations were determined by direct enzymatic procedures using a Centrifichem® System 400 autoanalyzer (Union Carbide Co.). Cholesterol concentrations were determined by the combined cholesterol esterasecholesterol oxidase procedure of Roeschlau, et al., Zeit. Klin. Chem. Klin. Biochem., 12, 226 (1974). Triglycerides were determined by the combined method of lipase catalyzed hydrolysis of triglycerides to glycerol and free fatty acids [Bucolo, G. and David, H., Clin. Chem., 19, 476 (1973) and Wahlefeld, A. W., in "Methods of Enzymatic Analysis," Vol, 4, Bergmeyer, H. D., Editor, Academic Press, New York, N.Y. (1974), pp. 1831-1835] and the enzymatic oxidation of the glycerol which leads to the production of colored formazan [Stavropoulos, W. S. and Crouch, R. D., Clin. Chem., 20, No. 7, 857 (1974)]. […] The compounds are considered active if they produce a statistically significant lowering of either sterol or triglycerides.

The next assay relates to aortic sterol content. The assay can be described thus: Decrease of aortic sterol content without effecting serum sterol in cholesterol-fed cockerels. Particulars: 525 mg. test compound and 20 g. cholesterol per kg. of diet, 14 days. The assay is classed as in vivo, Day-old Cockerels. Set-up: key: Active: Compounds which statistically decrease the aortic sterol content without having an effect on serum sterol are considered to be active. The method, then:
The compounds were further tested for their ability to decrease aortic sterol content without effecting serum sterol.
Day-old Cockerels were placed on diets consisting of pullet starter mash supplemented with either 20 g. cholesterol (control group) or 20 g. cholesterol and 525 mg. test compound (drug-treated group) per kg. of diet.
For the control diet, 20 g. of cholesterol was dissolved in 200 ml. of chloroform, mixed into one kg. of pullet starter mash and then the choloroform was removed by evaporation.
For the drug-treatment group, 525 mg. of the test compound was dissolved in 100 ml. of chloroform, mixed into a diet prepared as described above and then the chloroform was evaporated.
The cockerels were housed three per cage and given water and their respective diet ad libitum for 14 days. Blood was collected by cardiac puncture and the serum was saponified [Trinder, P., Analyst, 77, 321 (1952)] and extracted and the cholesterol content determinted [Zlatkis, A., et al., J. Lab Clin Med., 41 486 (1953)]. The aortae were removed, cleaned of adventitial tissue and the sterol content determined according to the above procedures. Compounds which statistically decrease the aortic sterol content without having an effect on serum sterol are considered to be active.

Usually inhibition stands for the change of the read-out against control, counted positive when it falls. As to `O=C(CCCCC(=O)N1CCN(c2cnccn2)CC1)c1ccc(Cl)cc1` [1-[5-(p-Chlorobenzoyl)valeryl]-4-(2-pyrazinyl)piperazine], in assay [1], testing at 5.2 µg/mL gave an inhibition of 47.4%. Further, the “% Lowering of Serum Triglycerides” value in assay [2] is recorded as 45%. On to `Cc1cccc(CC(=O)N2CCN(c3cnccn3)CC2)c1` [1-(2-Pyrazinyl)-4-(m-tolylacetyl)piperazine], for which, in assay [2], the “% Lowering of Serum Triglycerides” value came out at 40%.

Take `Cc1ccccc1CC(=O)N1CCN(c2nccs2)CC1` [1-(2-Thiazolyl)-4-o-tolylacetylpiperazine]: the inhibition at 5.2 µg/mL in assay [1] is 32.6%.

For `O=C(Cc1ccccc1)N1CCN(Cc2cccnc2)CC1` [1-Phenylacetyl-4-(3-pyridylmethyl)piperazine], the “% Lowering of Serum Triglycerides” value in assay [2] worked out at 34%. Regarding `Cc1ccccc1CC(=O)N1CCN(c2cnccn2)CC1` [1-(2-Methylphenylacetyl)-4-(2-pyrazinyl)piperazine], in assay [2], the “% Lowering of Serum Triglycerides” value worked out at 55%.

Consider `CCNC(=O)N1CCN(c2cnccn2)CC1` [N--Ethyl-4-(2-pyrazinyl)-1-piperazinecarboxamide], for which, in assay [2], the “% Lowering of Serum Triglycerides” value came to 43%. In turn, `O=C(CCCCCc1ccc(Cl)cc1)N1CCN(c2cnccn2)CC1` [1-[6-(p-Chlorophenyl)hexanoyl]-4-(2-pyrazinyl)piperazine] displayed an inhibition at 5.2 µg/mL in assay [1] of 68.9%. In addition, the “% Lowering of Serum Triglycerides” value in assay [2] stood at 30%. In the case of `CC(Oc1ccccc1)C(=O)N1CCN(c2cnccn2)CC1` (stereo not drawn) [1-(2-Phenoxypropionyl)-4-(2-pyrazinyl)piperazine], the inhibition at 5.2 µg/mL in assay [1] is 30.5%. In assay [2], the “% Lowering of Serum Triglycerides” value stood at 62%.

`COc1cncc(N2CCN(C(=O)Cc3ccccc3)CC2)n1` [1-(6-Methoxy-2-pyrazinyl)-4-phenylacetylpiperazine] displayed an inhibition at 5.2 µg/mL in assay [1] of 38.1%. In addition, in assay [2], the “% Lowering of Serum Triglycerides” value turned out to be 56%.

In the case of `O=C(Cc1ccc(Cl)cc1)N1CCN(c2cnccn2)CC1` [1-(p-Chlorophenylacetyl)-4-(2-pyrazinyl)piperazine], the “% Lowering of Serum Triglycerides” value in assay [2] is on record as 51%. Molecule `CC1CN(C(=O)Cc2ccccc2)CCN1c1ccc(Cl)cc1` (stereo not drawn) [1-(p-Chlorophenyl)-2-methyl-4-phenylacetylpiperazine] returned an inhibition at 5.2 µg/mL in assay [1] of 88.1%. Moreover, the “% Lowering of Serum Triglycerides” value in assay [2] is on record as 61%. `CC(C)(Oc1ccc(Cl)cc1)C(=O)N1CCN(c2cnccn2)CC1` [1-[2-(p-Chlorophenoxy)-2-methylpropionyl]-4-(2-pyrazinyl)piperazine]: the inhibition at 5.2 µg/mL in assay [1] was found to be 54.1%. The “% Lowering of Serum Triglycerides” value in assay [2] is 42%. As to `O=C(Cc1ccccc1)N1CCN(c2ccc3ccccc3n2)CC1` [1-phenylacetyl-4-(2-quinolyl)piperazine, 1-Phenylacetyl-4-(2-quinolyl)piperazine], the inhibition at 5.2 µg/mL in assay [1] is 89.7%. In assay [2], the “% Lowering of Serum Sterol” value was determined as 69% and the “% Lowering of Serum Triglycerides” value turned out to be 53%.

For the molecule `O=C(O)c1ccc(NC(=O)N2CCN(c3cnccn3)CC2)cc1` [p-[4-(2-Pyrazinyl)-1-piperazinecarboxamide]-benzoic acid], the inhibition at 5.2 µg/mL in assay [1] was 30.6%.

As to `O=C(Nc1c(Cl)cccc1Cl)N1CCN(c2cnccn2)CC1` [2',6'-Dichloro-4-(2-pyrazinyl)-1-piperazinecarboxanilide], the “Result (decrease of aortic sterol content without effect on serum sterol)” value in the assay on aortic sterol content is recorded as “Active”. Turning to `CCOC(=O)c1ccc(NC(=O)N2CCN(c3cnccn3)CC2)cc1` [Ethyl-p-[4-(2-pyrazinyl)-1-piperazinecarboxamido]benzoate], the inhibition at 5.2 µg/mL in assay [1] was 42.2%. As to `O=C(N1CCN(c2cnccn2)CC1)C(F)(F)C(F)(F)C(F)(F)C(F)(F)C(F)(F)C(F)(F)C(F)(F)F` [1-(Pentadecafluorooctanoyl)-4-(2-pyrazinyl)piperazine], the inhibition at 5.2 µg/mL in assay [1] was 39%. Further, in assay [2], the “% Lowering of Serum Sterol” value came to 47% and the “% Lowering of Serum Triglycerides” value turned out to be 74%. For the molecule `O=C(C1CC1)N1CCN(c2cnccn2)CC1` [1-Cyclopropylcarbonyl-4-(2-pyrazinyl)piperazine], the “% Lowering of Serum Triglycerides” value in assay [2] worked out at 37%. For the molecule `O=C(N1CCN(c2cnccn2)CC1)C(F)(F)C(F)(F)C(F)(F)F` [1-Heptafluorobutyroyl-4-(2-pyrazinyl)piperazine], the “% Lowering of Serum Triglycerides” value in assay [2] is 51%. `O=C(c1c(F)c(F)c(F)c(F)c1F)N1CCN(c2cnccn2)CC1` [1-Pentafluorobenzoyl-4-(2-pyrazinyl)piperazine]: the inhibition at 5.2 µg/mL in assay [1] came out at 31.2%.

With `O=C(Nc1ccc(Cl)cc1)N1CCN(c2cnccn2)CC1` [4'-Chloro-4-(2-pyrazinyl)-1-piperazinecarboxanilide], the “% Lowering of Serum Triglycerides” value in assay [2] turned out to be 33%. Take `O=C(c1ccccc1)N1CCN(c2cnccn2)CC1` [1-benzoyl-4-(2-pyrazinyl)piperazine, 1-Benzoyl-4-(2-pyrazinyl)piperazine]: the “% Lowering of Serum Triglycerides” value in assay [2] is reported as 30%. Take `CNC(=O)N1CCN(c2cnccn2)CC1` [N--Methyl-4-(2-pyrazinyl)-1-piperazinecarboxamide]: the “% Lowering of Serum Triglycerides” value in assay [2] amounted to 38%. For `CC(C)(C)NC(=O)N1CCN(c2cnccn2)CC1` [N--tert.-Butyl-4-(2-pyrazinyl)-1-piperazinecarboxamide], the inhibition at 5.2 µg/mL in assay [1] was 35.4%. `O=C(Cc1ccccc1)N1CCN(c2ccc(Cl)cc2)CC1` [1-(p-Chlorophenyl)-4-phenylacetylpiperazine] had an inhibition at 5.2 µg/mL in assay [1] of 73.3%. Consider `O=C(Cc1cccc(Cl)c1)N1CCN(c2cnccn2)CC1` [1-(m-Chlorophenylacetyl)-4-(2-pyrazinyl)piperazine], for which the “% Lowering of Serum Triglycerides” value in assay [2] is listed as 46%. For the molecule `O=C(Cc1ccc(Cl)cc1Cl)N1CCN(c2cnccn2)CC1` [1-(2,4-Dichlorophenylacetyl)-4-(2-pyrazinyl)piperazine], in assay [1], the inhibition at 5.2 µg/mL was found to be 32.2%. For the same molecule, the “% Lowering of Serum Triglycerides” value in assay [2] came to 44%. In assay [1], `O=C(Cc1ccccc1)N1CCN(c2cnc3ccccc3n2)CC1` [1-Phenylacetyl-4-(2-quinoxalinyl)piperazine] displayed an inhibition at 5.2 µg/mL of 40.1%.

With `CC(C)(C)c1ccc(C(=O)N2CCN(c3cnccn3)CC2)cc1` [1-(p-tert.-Butylbenzoyl)-4-(2-pyrazinyl)piperazine], in assay [1], at 5.2 µg/mL the inhibition was 39.7%. Take `CCCCCCCC(=O)N1CCN(c2cnccn2)CC1` [1-octanoyl-4-(2-pyrazinyl)piperazine, 1-Octanoyl-4-(2-pyrazinyl)piperazine]: in assay [1], the inhibition at 5.2 µg/mL was 33.6%. As to `O=C(c1cccnc1)N1CCN(c2cnccn2)CC1` [1-(2-Pyrazinyl)-4-(3-pyridylcarbonyl)piperazine], the “% Lowering of Serum Triglycerides” value in assay [2] is recorded as 30%.
